According to patent US10301267B2, “Compounds” (AstraZeneca AB, priority 2006, dated 2019):
Like-named read-outs stand apart in the source and are kept apart here.

Experiments:
[1] = biological target: T1, His6-tagged FGFR kinase domain (Homo sapiens, UniProt P11362, C488A/C584S); assay: FGFR Kinase assay - Elisa; type: biochemical
T1 construct: FGFR kinase domain (amino acids 458-765, C488A, C584S) N-terminally fused to a His6-tag and TEV cleavage site; His6-tag plus linker and TEV cleavage site (printed as X1); made in house
T1 sequence (P11362 458-765 C488A/C584S): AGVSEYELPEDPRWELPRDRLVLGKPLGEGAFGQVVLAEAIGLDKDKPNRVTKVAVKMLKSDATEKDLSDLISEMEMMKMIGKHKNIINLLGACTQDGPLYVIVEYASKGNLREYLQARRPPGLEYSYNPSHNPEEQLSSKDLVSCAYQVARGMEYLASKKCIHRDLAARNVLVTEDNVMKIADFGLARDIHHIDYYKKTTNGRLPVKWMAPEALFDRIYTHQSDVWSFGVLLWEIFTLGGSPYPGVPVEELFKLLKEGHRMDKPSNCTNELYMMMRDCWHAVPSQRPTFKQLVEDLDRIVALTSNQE
Protocol: To determine inhibition of FGFR activity, kinase assays were conducted using ELISA (Enzyme-Linked Immunosorbent Assay) technology.
Kinase activity assays were performed in 384-well polypropylene plates (Matrix, Catalogue No. 4311. Matrix are part of Thermo Fisher Scientific, 22 Friars Drive, Hudson, N.H. 03051, USA) with a total volume of 40 μl in each well. Each well was coated with 2 μg of polyEAY substrate (Sigma, Catalogue No. P3899) at 4° C. overnight. The plates were then washed once with 100 μl PBS and once with 100 μl 50 mM HEPES (pH 7.4) prior to the addition of the kinase assay reagents. Reactions contained His6-tagged FGFR kinase domain (FGFR kinase domain (amino acids 458-765, C488A, C584S) N-terminally fused to a His6-tag and TEV cleavage site encoded by the following sequence; [[…]]. The final alanine denotes the start of the FGFR protein sequence. The resultant protein was expressed and purified based on Mohammadi et al, Cell Vol 86, 577-587 (1996). Each kinase reaction contained 0.1 ng His6-tagged FGFR kinase domain, 50 mM HEPES (pH 7.4), 0.1 mM Na3VO4, 0.1 mM DTT, 0.05% (v/v) Triton X100, 20 mM MgCl2, 160 μM ATP. Various concentrations of test compounds were each added in 5% (v/v) DMSO to yield a final assay DMSO concentration of 1.25% (v/v). The kinase reactions were incubated at room temperature for 45 minutes and stopped by washing the plate three times with 100 μl PBS plus 0.05% Tween. 40 μl of a one in 10000 dilution of 4G10-HRP antibody (Upstate Biotechnology, UBI 16-105. Upstate are part of Millipore Corporation, 290 Concord Road, Billerca Mass. 01821 USA) made up in 0.5% (w/v) BSA/PBS was then added to each well and the plates incubated at room temperature for one hour. Following this, the plates were then washed repeatedly with 100 μl PBS plus 0.05% Tween to remove all traces of the antibody solution. 40 μl of 50 μg/ml 3,3′,5,5′-Tetramethylbenzidine (Sigma, Catalogue No. T2885), 0.05M phosphate-citrate buffer, containing 0.03% sodium perborate was added to each well and the plates incubated at room temperature for twelve minutes. The colour reaction was stopped by the addition of 20 μl 2M H2SO4 and the plates read at 450 nm on a Spectrafluor Plus (Tecan Trading AG, Switzerland). In the assay, compounds were tested at a range of concentrations.
Percentage inhibition at 1 uM, as expressed herein, is a calculated value based on the curve fit that was generated experimentally. From the fitted curve plot, the effect of compound at a concentration of 1 uM was calculated as a percentage inhibition. The IC50 value is the concentration of test compound that inhibits 50% of FGFR kinase activity.

[2] = system: bFGF stimulated Erk phosphorylation in NIH 3T3 cells; assay: Cell pErk - growth factor stimulated Erk phosphorylation; type: cell-based; details: Mus musculus
From the text: Cell Assays Cell pErk—Growth Factor Stimulated Erk Phosphorylation
These and other assays were used to evaluate the ability of a test compound to inhibit growth factor stimulated cellular signalling in mammalian cell lines. This was achieved by measuring the amount of receptor tyrosine kinase regulated Erk phosphorylation within a cell following compound treatment.
NIH 3T3 (ECACC, 93061524) cells were routinely passaged in DMEM (Gibco BRL, 41966) plus 10% foetal calf serum (FCS), 1% L-glutamine (Gibco BRL, 25030) to a confluence not greater than 80%. To undertake the assay, NIH 3T3's were seeded at 1×10^4 cells/well in DMEM plus 10% foetal calf serum, 1% L-glutamine in 96 well plates (Costar, 3904) and incubated at 37° C. (+5% CO2) in a humidified incubator. Once the cells had fully adhered (typically following 4-5 hours incubation) the media was removed from each well and the cells gently washed with 100 μl warm serum free media. 90 μl of serum free DMEM plus 1% L-glutamine was then added to each well and the plates were returned to a humidified 37° C. (+5% CO2) incubator. The following day, the plates were dosed with 10 μl compound (diluted from 10 mM stock in DMSO using serum free DMEM) and the plates were returned to a humidified 37° C. (+5% CO2) incubator for one hour. NIH 3T3 cells were then stimulated with a final concentration of 3 ng/ml bFGF (Sigma, F0291) for 20 minutes at 37° C. Following stimulation the cells were fixed by adding formaldehyde (4% v/v final concentration) and incubating at room temperature for 20 minutes. The fixative solution was then removed and the wells were washed twice with 100 μl phosphate buffered saline (PBS/A) before permeabilising the cells by the addition of 50 μl/well 0.1% triton/PBS/A for 10 minutes at room temperature. The permeabilisation solution was then removed and the cells washed twice more with 100 μl/well PBS/A before the addition of 50 μl/well anti-phospho p44/42 antibody (Cell Signalling Technology, 9106), diluted 1/500 with PBS/A plus 10% FCS. The anti-phospho p44/42 antibody recognises Erk phosphorylated at threonine 202 and tyrosine 204. Following incubation at room temperature for 2 hours, the antibody solution was removed and the wells were washed twice with 100 μl/well PBS/A. 50 μl/well 1/250 goat anti-mouse alexa fluor 488 secondary antibody (Molecular Probes, A11001) and 1/10000 Hoescht (Molecular Probes, H-3570) diluted with PBS/A plus 10% FCS was added and the plate incubated in the dark at room temperature for one hour. Finally, the plates were washed three times with 100 μl/well PBS/A, leaving the final wash in the wells before sealing the plates. The plates were read at 350 nm and 488 nm using an Arrayscan (Cellomics). […] IC50 value is the concentration of test compound that inhibits 50% of Erk phosphorylation.

[3] = biological target: T2, FGFR1 active kinase (Homo sapiens, UniProt P11362); assay: FGFR Kinase assay - Caliper Echo Dosing; type: biochemical; details: FGFR1 7.2 nM, 408 uM ATP, acoustic dosing; geometric mean of n
T2 sequence (P11362 22-822): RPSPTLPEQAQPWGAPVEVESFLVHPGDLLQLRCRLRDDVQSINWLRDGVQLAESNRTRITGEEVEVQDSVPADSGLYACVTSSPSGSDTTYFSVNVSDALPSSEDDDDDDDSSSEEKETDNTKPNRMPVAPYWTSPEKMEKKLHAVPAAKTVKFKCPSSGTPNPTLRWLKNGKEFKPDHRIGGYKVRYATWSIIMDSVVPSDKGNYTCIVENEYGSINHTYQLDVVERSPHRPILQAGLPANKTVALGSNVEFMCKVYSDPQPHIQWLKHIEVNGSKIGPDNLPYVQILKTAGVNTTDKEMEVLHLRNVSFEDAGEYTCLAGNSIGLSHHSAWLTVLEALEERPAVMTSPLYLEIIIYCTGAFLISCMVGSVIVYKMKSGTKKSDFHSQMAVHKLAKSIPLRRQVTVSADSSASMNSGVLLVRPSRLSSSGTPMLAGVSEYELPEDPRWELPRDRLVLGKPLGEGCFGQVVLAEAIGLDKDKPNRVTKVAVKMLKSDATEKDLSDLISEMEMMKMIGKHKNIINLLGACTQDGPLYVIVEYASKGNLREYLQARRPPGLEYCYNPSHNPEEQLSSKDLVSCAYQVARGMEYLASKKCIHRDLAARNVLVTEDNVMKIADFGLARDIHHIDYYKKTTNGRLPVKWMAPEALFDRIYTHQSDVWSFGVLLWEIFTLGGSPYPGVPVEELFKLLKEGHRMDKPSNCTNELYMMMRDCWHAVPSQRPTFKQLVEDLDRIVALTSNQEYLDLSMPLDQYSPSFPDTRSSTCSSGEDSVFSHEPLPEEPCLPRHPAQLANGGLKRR

[4] = biological target: T2, FGFR1 active kinase; assay: FGFR Kinase assay - Caliper; type: biochemical; on FGFR Kinase assay - Caliper, IC50: 408 µM ATP
[5] = biological target: T3, transiently expressed FGFR1 IIIc in Cos-1 cells (Homo sapiens, UniProt P11362); assay: Cell FGFR1 - cell based inhibition of transiently expressed FGFR1 IIIc phosphorylation; details: phospho-FGFR1
T3 construct: The clone was full-length, wild-type FGFR1 IIIc isoform; host or cells: Cos-1
T3 sequence (P11362 22-822): as above
From the text: Cell FGFR1—Cell Based Inhibition of Transiently Expressed FGFR1 IIIc Phosphorylation (Measured Using Phospho-Specific Primary and Fluorescent Secondary Antibodies).
This assay is designed to detect inhibitors of transiently expressed FGFR1 phosphorylation by antibody staining of fixed cells detected using ArrayScan technology. (For a description of Array Scan technology see http://www.cellomics.com/content/menu/Arrayscan/)
Cos-1 cells were routinely passaged in DMEM (Gibco BRL, 41966) plus 3% foetal calf serum (FCS), 1% L-glutamine (Gibco BRL, 25030) to a confluence of 80%. To undertake the assay, Cos-1 cells were harvested at 90-95% confluence for cell transfection. […]
The harvested Cos-1 cells are counted using a coulter counter and diluted further with 1% FCS/DMEM to 2.5×10^5 cells/ml. […]
Following incubation at room temperature for 1 hour, the antibody solution was removed and the wells were washed once with 200 ul/well PBS/A. Then 40 μl 1/500 secondary antibody (A111005; goat anti-mouse 594) solution and 1/10000 Hoechst (diluted together in PBS/A with 10% FCS+0.1% Tween 20) were added and the plate incubated in the dark at room temperature for one hour. […] The plates were read on an Arrayscan (Cellomics). […]

[6] = FGFR inhibition test, Elisa, read-out: Activity class (FGFR Kinase assay - Elisa)
[7] = polyEAY substrate, 160 μM ATP, read-out: FGFR Kinase assay - Elisa, IC50
[8] = NIH3T3, 3 ng/ml bFGF, read-out: Activity class (Cell pErk)
[9] = FGFR1 […], 408 uM ATP, mean of n as printed, read-out: FGFR Kinase assay - Caliper, IC50
[10] = FGFR inhibition test, Caliper, read-out: Activity class (FGFR Kinase assay - Caliper)

SMILES	IC50 [1, 6]	IC50 [1, 7]	IC50 [2, 8]	IC50 [3]	IC50 [4, 9]	IC50 [5]	IC50 [4, 10]	IC50 ([2]; NIH3T3, footnote example, read-out: Cell pErk, value in table footnote)
COc1cccc(CCc2cc(NC(=O)c3ccc(N4CCN(C)CC4)cc3)[nH]n2)c1 [Example 11, N-[5-[2-(3-methoxyphenyl)ethyl]-2H-pyrazol-3-yl]-4-(4-methylpiperazin-1-yl)benzamide]	< 300 nM	82.8 nM	< 300 nM					
COc1cc(CCc2cc(NC(=O)c3ccc(N4CCN(C)CC4)cc3)[nH]n2)cc(OC)c1 [Example 10, N-[5-[2-(3,5-dimethoxyphenyl)ethyl]-2H-pyrazol-3-yl]-4-(4-methylpiperazin-1-yl)benzamide]	< 300 nM		< 300 nM	0.85 nM				
COc1cc(CCc2cc(NC(=O)c3ccccc3)[nH]n2)cc(OC)c1 [Example 2, N-[5-[2-(3,5-dimethoxyphenyl)ethyl]-2H-pyrazol-3-yl]benzamide]			< 300 nM		140 nM			
COc1cc(CCc2cc(NC(=O)c3ccc(CC(C)N)cc3)n[nH]2)cc(OC)c1 (stereo not drawn) [Example 49, 4-(2-Aminopropyl)-N-[5-[2-(3,5-dimethoxyphenyl)ethyl]-1H-pyrazol-3-yl]benzamide]						1470 nM		
CCNc1ccc(C(=O)Nc2cc(CCc3cccc(OC)c3)n[nH]2)cn1 [Example 18, 6-Ethylamino-N-{5-[2-(3-methoxy-phenyl)-ethyl]-2H-pyrazol-3-yl}-nicotinamide]	300 to 1000 nM		300 to 1000 nM		540 nM		300 to 1000 nM	877 nM
CN1CCN(c2ccc(C(=O)Nc3cc(CCc4ccoc4)n[nH]3)cc2)CC1 [Example 9, N-[5-[2-(3-furyl)ethyl]-2H-pyrazol-3-yl]-4-(4-methylpiperazin-1-yl)benzamide]	< 300 nM		300 to 1000 nM		137 nM		< 300 nM	
CN1CCN(c2ccc(C(=O)Nc3cc(CCc4ccccc4)n[nH]3)cc2)CC1 [Example 1, 4-(4-methylpiperazin-1-yl)-N-(5-phenethyl-2H-pyrazol-3-yl)benzamide]	< 300 nM	220 nM	300 to 1000 nM					
CN1CCN(c2ccc(C(=O)Nc3cc(CCc4ccco4)n[nH]3)cc2)CC1 [Example 8, N-[5-[2-(2-furyl)ethyl]-2H-pyrazol-3-yl]-4-(4-methylpiperazin-1-yl)benzamide]	< 300 nM	79.5 nM	< 300 nM				< 300 nM	
COc1cc(CCc2cc(NC(=O)c3ccc(OCCN4CCC(F)(F)CC4)cc3)n[nH]2)cc(OC)c1 [Example 55, 4-[2-(4,4-Difluoro-1-piperidyl)ethoxy]-N-[5-[2-(3,5-dimethoxyphenyl)ethyl]-1H-pyrazol-3-yl]benzamide]						460 nM		
CN1CCN(c2ccc(C(=O)Nc3cc(CCc4cccnc4)n[nH]3)cc2)CC1 [Example 7, 4-(4-methylpiperazin-1-yl)-N-[5-(2-pyridin-3-ylethyl)-2H-pyrazol-3-yl]benzamide]	< 300 nM		1000 to 30000 nM		47 nM		< 300 nM	
